According to PMC10935098 (Molecules, 2024):
Converted amounts (≈) assume the structure as drawn. Where a SMILES comes first, the peptide text is derived from it. Bridges are numbered along the chain shown (N, C = ends). [ ]: non-standard residue; d: D form.

Columns and labels:
[1] = system: Candida tropicalis (BNCC340288); details: BNCC340288, 24 h
[2] = system: Candida parapsilosis (BNCC336015); details: BNCC336015, 24 h
[3] = system: Bacillus subtilis (BNCC109047); details: BNCC109047, 24 h
[4] = system: Escherichia coli (BNCC336902); details: BNCC336902, 24 h
trypsin = details: pH 6.8
[5] = system: erythrocytes of C57BL/6 mice; details: 128 µM
in vitro = details: serum
Candida tropicalis [6] = assay type: cell-based
Candida tropicalis [7] = assay type: cell-based; remark: listed apart in the source
[8] = system: human hepatocytes (THLE-3)
C57BL/6 mice = details: mouse, ip, 10 mg/kg
Bacillus subtilis = assay type: cell-based

SMILES: CC(C)C[C@@H]1NC(=O)[C@@H]2CSSC[C@@H](C(N)=O)NC(=O)[C@@H](CCCCN)NC(=O)[C@H](Cc3ccc(O)cc3)NC(=O)[C@@H](CCCCN)NC(=O)[C@H](CSSC[C@H](NC(=O)CN)C(=O)N2)NC(=O)[C@@H](CCCCN)NC(=O)[C@H](CC(C)C)NC(=O)[C@@H](CCCCN)NC1=O [Pep 1] (H-GCCL[dK]L[dK]C[dK]Y[dK]C-NH2; disulfide 2-8, 3-12)
- MIC, C. tropical [1]: >64 µM
- MIC, C. parapsilosis [2]: >64 µM
- MIC, B. subtilis [3]: >64 µM
- MIC, E. coli [4]: >64 µM

SMILES: CC(C)C[C@@H]1NC(=O)[C@@H]2CSSC[C@@H](C(N)=O)NC(=O)[C@@H](CCCCN)NC(=O)[C@H](Cc3c[nH]c4ccccc34)NC(=O)[C@@H](CCCCN)NC(=O)[C@H](CSSC[C@H](NC(=O)[C@@H](N)CC(C)C)C(=O)N2)NC(=O)[C@@H](CCCCN)NC(=O)[C@H](CC(C)C)NC(=O)[C@@H](CCCCN)NC1=O [Pep 2] (H-LCCL[dK]L[dK]C[dK]W[dK]C-NH2; disulfide 2-8, 3-12)
- MIC, C. tropical [1]: >64 µM
- MIC, C. parapsilosis [2]: >64 µM
- MIC, B. subtilis [3]: >64 µM
- MIC, E. coli [4]: >64 µM

SMILES: CC(C)C[C@@H]1NC(=O)[C@@H]2CSSC[C@@H](C(N)=O)NC(=O)[C@@H](CCCCN)NC(=O)[C@H](CC(C)C)NC(=O)[C@@H](CCCCN)NC(=O)[C@H](CSSC[C@H](NC(=O)[C@@H](N)CC(C)C)C(=O)N2)NC(=O)[C@@H](CCCCN)NC(=O)[C@H](CC(C)C)NC(=O)[C@@H](CCCCN)NC1=O [Pep 3] (H-LCCL[dK]L[dK]C[dK]L[dK]C-NH2; disulfide 2-8, 3-12)
- MIC, C. tropical [1]: >64 µM
- MIC, C. parapsilosis [2]: >64 µM
- MIC, B. subtilis [3]: >64 µM
- MIC, E. coli [4]: >64 µM

SMILES: CC(C)C[C@@H]1NC(=O)[C@@H]2CSSC[C@@H](C(N)=O)NC(=O)[C@@H](CCCCN)NC(=O)[C@H](CC(C)C)NC(=O)[C@@H](CCCCN)NC(=O)[C@H](CSSC[C@H](NC(=O)[C@@H](N)CC(C)C)C(=O)N2)NC(=O)[C@H](C)NC(=O)[C@@H](CCCCN)NC(=O)[C@H](CC(C)C)NC(=O)[C@@H](CCCCN)NC1=O [Pep 4] (H-LCCL[dK]L[dK]AC[dK]L[dK]C-NH2; disulfide 2-9, 3-13)
- MIC, C. tropical [1]: >64 µM
- MIC, C. parapsilosis [2]: >64 µM
- MIC, B. subtilis [3]: >64 µM
- MIC, E. coli [4]: >64 µM

SMILES: CC(C)C[C@@H]1NC(=O)[C@@H]2CSSC[C@@H](C(N)=O)NC(=O)[C@@H](CCCCN)NC(=O)[C@H](CC(C)C)NC(=O)[C@@H](CCCCN)NC(=O)[C@H](CC(C)C)NC(=O)[C@@H](CCCCN)NC(=O)[C@H](CSSC[C@H](NC(=O)[C@@H](N)CC(C)C)C(=O)N2)NC(=O)[C@@H](CCCCN)NC1=O [Pep 5] (H-LCCL[dK]C[dK]L[dK]L[dK]C-NH2; disulfide 2-6, 3-12)
- MIC, C. tropical [1]: 64 µM (≈ 89 µg/mL)
- MIC, C. parapsilosis [2]: 128 µM (≈ 178 µg/mL)
- MIC, B. subtilis [3]: 128 µM (≈ 178 µg/mL)
- MIC, E. coli [4]: 32 µM (≈ 44.5 µg/mL)
- Stability in SIF (trypsin): remained almost entirely intact after 24 h
- Hemolysis [5]: less than 5%
- remaining at 4 h (in vitro): 20%

SMILES: CC(C)C[C@@H]1NC(=O)[C@@H](CCCCN)NC(=O)[C@@H]2CSSC[C@H](NC(=O)[C@H](CC(C)C)NC(=O)[C@@H](CCCCN)NC(=O)[C@@H](CCCCN)NC(=O)[C@@H](N)CC(C)C)C(=O)N[C@@H](CSSC[C@@H](C(N)=O)NC(=O)[C@@H](CCCCN)NC1=O)C(=O)N[C@H](CCCCN)C(=O)N2 [Pep 6] (H-L[dK][dK]LCC[dK]C[dK]L[dK]C-NH2; disulfide 5-8, 6-12)
- Effect on growth of Candida tropicalis (growth curve) (Candida tropicalis [6]): inhibitory effects
- Bactericidal effect on Candida tropicalis (Candida tropicalis [7]): significant bactericidal effect
- Fungal counts after 60 min (Candida tropicalis [7]): 1 × 10^3 cfu/mL
- Reduction of fungal counts (Candida tropicalis [7]): over 1000 fold
- MIC, C. tropical [1]: 8 µM (≈ 11.2 µg/mL)
- MIC, C. parapsilosis [2]: 32 µM (≈ 45 µg/mL)
- MIC, B. subtilis [3]: 64 µM (≈ 90 µg/mL)
- MIC, E. coli [4]: 128 µM (≈ 180 µg/mL)
- Stability in SIF (trypsin): remained almost entirely intact after 24 h
- Hemolysis [5]: less than 5%
- Toxicity on human hepatocyte THLE-3 [8]: little or no toxicity
- Body weight change (C57BL/6 mice; in vivo): no significant changes
- remaining at 4 h (in vitro): 20%

SMILES: CC(C)C[C@@H]1NC(=O)[C@H](CCCCN)NC(=O)[C@H](CC(C)C)NC(=O)[C@H](CCCCN)NC(=O)[C@@H]2CSSC[C@H](NC(=O)[C@@H](N)CC(C)C)C(=O)N[C@@H](CSSC[C@@H](C(N)=O)NC(=O)[C@H](CCCCN)NC1=O)C(=O)N[C@@H](CC(C)C)C(=O)N[C@@H](CCCCN)C(=O)N2 [Pep 7] (H-LCCLKCKLKLKC-NH2; disulfide 2-6, 3-12)
- MIC, C. tropical [1]: 64 µM (≈ 89 µg/mL)
- MIC, C. parapsilosis [2]: 64 µM (≈ 89 µg/mL)
- MIC, B. subtilis [3]: 64 µM (≈ 89 µg/mL)
- MIC, E. coli [4]: >128 µM
- Stability in SIF (trypsin): nearly fully degraded within one hour

SMILES: CC(C)C[C@@H]1NC(=O)[C@@H]2CSSC[C@@H](C(N)=O)NC(=O)[C@@H](CCCNC(=N)N)NC(=O)[C@H](CC(C)C)NC(=O)[C@@H](CCCCN)NC(=O)[C@H](CC(C)C)NC(=O)[C@@H](CCCNC(=N)N)NC(=O)[C@H](CSSC[C@H](NC(=O)[C@@H](N)CC(C)C)C(=O)N2)NC(=O)[C@@H](CCCNC(=N)N)NC1=O [Pep 8] (H-LCCL[dR]C[dR]L[dK]L[dR]C-NH2; disulfide 2-6, 3-12)
- Effect on growth of Candida tropicalis (growth curve) (Candida tropicalis [6]): inhibitory effects
- Effect on growth of Bacillus subtilis (growth curve) (Bacillus subtilis): inhibitory effects
- Bactericidal effect on Candida tropicalis (Candida tropicalis [7]): significant bactericidal effect
- Fungal counts after 60 min (Candida tropicalis [7]): 1 × 10^3 cfu/mL
- Reduction of fungal counts (Candida tropicalis [7]): over 1000 fold
- MIC, C. tropical [1]: 8 µM (≈ 11.8 µg/mL)
- MIC, C. parapsilosis [2]: 8 µM (≈ 11.8 µg/mL)
- MIC, B. subtilis [3]: 16 µM (≈ 23.6 µg/mL)
- MIC, E. coli [4]: 128 µM (≈ 189 µg/mL)
- Stability in SIF (trypsin): remained almost entirely intact after 24 h
- Hemolysis [5]: less than 5%
- Cytotoxicity on human hepatocyte THLE-3 [8]: remarkable cytotoxicity
- In vivo safety in mice (C57BL/6 mice): favorable safety
- remaining at 4 h (in vitro): 20%

SMILES: CC(C)C[C@@H]1NC(=O)[C@H](CCCCN)NC(=O)[C@@H]2CSSC[C@H](NC(=O)[C@H](CC(C)C)NC(=O)[C@H](CCCCN)NC(=O)[C@H](CCCCN)NC(=O)[C@@H](N)CC(C)C)C(=O)N[C@@H](CSSC[C@@H](C(N)=O)NC(=O)[C@H](CCCCN)NC1=O)C(=O)N[C@@H](CCCCN)C(=O)N2 [Pep 9] (H-LKKLCCKCKLKC-NH2; disulfide 5-8, 6-12)
- Effect on growth of Candida tropicalis (growth curve) (Candida tropicalis [6]): inhibitory effects
- Fungal counts after 60 min (Candida tropicalis [7]): 1 × 10^3 cfu/mL
- Reduction of fungal counts (Candida tropicalis [7]): over 1000 fold
- MIC, C. tropical [1]: 16 µM (≈ 22.5 µg/mL)
- MIC, C. parapsilosis [2]: 16 µM (≈ 22.5 µg/mL)
- MIC, B. subtilis [3]: 128 µM (≈ 180 µg/mL)
- MIC, E. coli [4]: >128 µM
- Stability in SIF (trypsin): nearly fully degraded within one hour
- Toxicity on human hepatocyte THLE-3 [8]: little or no toxicity
